Patent publication US5753631A, “Intercellular adhesion mediators” (Cytel Corporation, priority 1995, dated 1998)
Where two headings read alike, the source gives them in different places.

Key:
[1] = target: T1, P-Selectin (Homo sapiens, UniProt P16109); assay: Oligosaccharide/polysaccharide inhibition of neutrophil adhesion to thrombin activated platelets; format: cell-based; conditions: for IC50: read-out: AMOUNT REQUIRED FOR 50% INHIBITION (converted)
T1 construct: endogenous in cells
T1 sequence (P16109 42-830): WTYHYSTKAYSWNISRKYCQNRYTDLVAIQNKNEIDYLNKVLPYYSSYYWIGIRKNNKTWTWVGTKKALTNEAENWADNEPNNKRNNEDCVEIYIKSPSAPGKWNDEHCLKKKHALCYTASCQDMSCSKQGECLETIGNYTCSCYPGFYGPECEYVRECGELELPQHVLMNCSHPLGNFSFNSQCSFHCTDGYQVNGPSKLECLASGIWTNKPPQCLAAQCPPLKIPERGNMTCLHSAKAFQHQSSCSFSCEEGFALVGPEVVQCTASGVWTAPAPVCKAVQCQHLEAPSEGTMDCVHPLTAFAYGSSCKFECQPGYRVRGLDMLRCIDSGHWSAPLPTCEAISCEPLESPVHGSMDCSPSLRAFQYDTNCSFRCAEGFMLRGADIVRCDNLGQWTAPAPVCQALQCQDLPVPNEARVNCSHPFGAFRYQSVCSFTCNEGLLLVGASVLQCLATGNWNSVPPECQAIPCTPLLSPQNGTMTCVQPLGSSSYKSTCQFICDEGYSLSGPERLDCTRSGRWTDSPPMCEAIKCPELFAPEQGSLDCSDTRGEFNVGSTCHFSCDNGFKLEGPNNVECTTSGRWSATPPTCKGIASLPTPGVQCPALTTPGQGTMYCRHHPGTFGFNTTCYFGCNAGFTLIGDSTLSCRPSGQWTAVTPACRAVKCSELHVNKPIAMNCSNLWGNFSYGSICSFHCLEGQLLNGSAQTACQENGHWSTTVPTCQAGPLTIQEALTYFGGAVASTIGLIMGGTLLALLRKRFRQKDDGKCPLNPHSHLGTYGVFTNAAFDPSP
Experimental: (§1) Briefly, platelets and neutrophils were isolated by the methods described above. Platelets were activated with thrombin and then incubated with dilutions of various oligosaccharides. Neutrophils were added, and the effect of the saccharides on the adhesion of neutrophils to activated platelets was determined.
1. Platelets were isolated as described above and were activated (2×10^8 /ml) by incubation for 20 min at room temperature with thrombin at a final concentration of 0.25 U/ml.
2. Neutrophils were isolated by layering heparinized blood over Mono-Poly Resolving Medium (Ficoll-Hypaque-Flow Laboratories), followed by centrifugation for 25 min at 2000 rpm and then, a further 25 min at 2500 rpm as described above.
3. For the assay, 20 μl of the platelet suspension (2×10^8 /ml) was placed in a microcentrifuge tube. An equal volume of the oligosaccharide preparations at concentrations from 200 μg/ml to 0.3 μg/ml, or of glycolipid-liposome preparations (prepared as described above), at concentrations from 2 μg/ml to 0.25 μg/ml, was added and the tubes were allowed to stand at room temperature for 20 min. Twenty μl of the neutrophil preparation (2×10^6 /ml) was then added and the tubes were allowed to stand for a further 20 min at room temperature.
(§2) 4. Adhesion of activated platelets to the neutrophils was assessed microscopically. One hundred neutrophils were evaluated. They were scored as positive if 2 or more platelets were attached and negative if less than 2 platelets were bound. The percent of cells with 2 or more bound platelets was calculated.
as §1, with “added” for “added,”
Platelets were isolated as described above and were activated (2×10^8 /ml) by incubation for 20 min at room temperature with thrombin at a final concentration of 0.25 U/ml.
Neutrophils were isolated by layering heparinized blood over Mono-Poly Resolving Medium (Ficoll-Hypaque, Flow Laboratories), followed by centrifugation for 25 min at […] and then, a further 25 min at 2500 rpm as described above.
For the assay, 20 μl of the platelet suspension (2×10^8 /ml) was placed in an Eppendorf centrifuge tube. An equal volume of the oligosaccharide preparations at concentrations from 500 μg/ml to 2.0 μg/ml was added and the tubes were allowed to stand at room temperature for 20 min. Twenty […] of the neutrophil preparation (2×10^6 /ml) was then added and the tubes were allowed to stand for a further 20 min at room temperature.
as §2, with “Adhesion” for “4. Adhesion”

[2] = system: CVF-induced acute lung injury; assay: Cobra venom factor (CVF)-induced acute lung injury in the rat; format: in vivo; conditions: in words; prior to CVF, 30 minutes
Experimental: Groups of rats were pretreated with either vehicle, SLN-OH (0.6 mg/Kg), or with SLX-OH (0.6 mg/Kg) 5 minutes prior to administration of either CVF or PBS. Each bar represents the mean of 6 animals and vertical lines represent the standard error of the mean.
Groups of rats were pretreated with either vehicle or Z at the indicated doses 5 minutes prior to administration of CVF or PBS. Each point represents the mean of 6 animals and vertical lines represent the standard error of the mean.
The intravenous injection of CVF produces intravascular complement activation which results in lung injury, defined as an increase in neutrophil accumulation within the lung, an increase in pulmonary vascular permeability and in lung hemorrhage. It is likely that intravascular complement activation results in the generation of a wide range of inflammatory mediators. Of particular relevance to the studies described here is generation of the split fifth complement component, C5a, which can stimulate the release of histamine from circulating basophils and tissue mast cells. […] The expression of selectins, including P-selectin, is a necessary first step in the process of leukocyte adherence to vascular endothelium.
Animals were dosed with different oligosaccharide preparations or phosphate buffered saline (PBS) five minutes before administration of cobra venom factor (20 units/Kg, i.v.). Included in this material was an aliquot of ^125 I-bovine serum albumin (0.5 μCi) and ^51 Cr labelled autologous red blood cells (0.5 μCi) for measuring plasma extravasation and hemorrhage respectively. Thirty minutes after administration of the cobra venom factor the animals were anesthetized with ketamine hydrochloride (10 mg/Kg) and exsanguinated via the posterior vena cava. The lung vasculature was then perfused through the right cardiac ventricle with 10 mL of PBS. The lungs were removed and the amount of radioactivity remaining within the tissue assessed with a gamma scintillation counter. Increased pulmonary vascular permeability was measured as the ratio of ^125 I in lung tissue compared with the amount present in 1 mL of venous blood obtained at the time of death. Lung hemorrhage was measured as the ratio of ^51 Cr in lung tissue compared with the amount present in 1 mL of venous blood obtained at the time of death. Neutrophil accumulation in lungs was determined by measuring the myeloperoxidase activity of lungs homogenized in PBS. Myeloperoxidase activity in lung supernatants was assayed by measuring the change in absorbance at 460 nm resulting from decomposition of H2 O2 in the presence of o-dianisidine

[3] = system: histamine induced leukocyte rolling in rat mesenteric venules; assay: Histamine induced leukocyte rolling and adherence in rat mesenteric venules (intravital microscopy); format: in vivo, rat (male Sprague-Dawley)
Experimental: Surgical procedure. Sixty-four male Sprague-Dawley rats (200-250 g) were maintained on a purified laboratory diet and fasted for 24 hours prior to the experiment. The animals were initially anesthetized with pentobarbital (65 mg/kg body weight), then a tracheotomy was performed to facilitate breathing during the experiment. The right carotid artery was cannulated and systemic arterial pressure was measured with a Statham (Oxnard, Calif.) P23A pressure transducer connected to the carotid artery cannula. Systemic blood pressure and heart rate were continuously recorded with a Grass physiologic recorder (Grass Instruments, Massachusetts). The left jugular vein was also cannulated for drug administration and blood sample collection. After a midline abdominal incision a segment of the mid-jejunum was exteriorized. All exposed tissue was moistened with saline-soaked gauze to minimize evaporation and dehydration.
Intravital microscopy. Rats were placed in a supine position on an adjustable plexiglass microscope stage and the mesentery was draped over an optically clear coverslip that allowed for observation of a 2 cm^2 segment of tissue. The temperature of the pedestal was maintained at 37° C. with a constant temperature circulator (Fisher Scientific, model 80). A small rubber gasket (area=3.14 cm^2) was placed on the mesentery and the outside area of contact between the gasket and mesentery was sealed (to prevent leakage of superfusate from the ring) with a mixture of high vacuum grease (Dow Corning Corp., Midland, Mich.) and white petrolatum (E. Fougera & Co., Melville, N.Y.). Rectal and mesenteric temperatures were continuously monitored using an electrothermometer. The exposed bowel wall was covered with Saran Wrap (Dow Chemical Co., Indiana), and the mesenteric tissue within the gasket was suffused with warmed bicarbonate-buffered saline (BBS; pH 7.4) that was bubbled with a mixture of 5% O2; 5% CO2; 90% N2.
An inverted microscope (Nikon Optiphoto, Japan) with a ×40 objective lens (Nikon Optiphoto, Japan) and a ×10 eyepiece was used to observe the mesenteric microcirculation. The mesentery was transilluminated with a 12 V-100 W direct current-stabilized light source. A video camera (Hitachi, VK-C150, Japan) mounted on the microscope projected the image onto a color monitor (Sony, PVM-2030, Japan), and the images were recorded using a video cassette recorder (Panasonic, NV8950, Japan). A video time-date generator (Panasonic, WJ810, Japan) projected the time, date, and stopwatch function onto the monitor.
Single unbranched venules with diameters ranging between 25 μm and 35 μm and a length>150 μm were selected for study. Venular diameter (Dv) was measured either on- or off-line using a video image-shearing monitor (IPM, La Mesa, Calif.). The number of adherent leukocytes was determined off-line during playback of videotaped images. A leukocyte was considered to be adherent to venular endothelium if it remained stationary for a period equal to or greater than 30 seconds. Adherent cells were expressed as the number per 100 μm length of venule. The number of emigrated leukocytes was also determined off-line during playback of videotaped images. Ary interstitial leukocytes present in the mesentery at the onset of the experiment were subtracted from the total number of leukocytes that accumulated during the course of the experiment. Leukocyte emigration was expressed as the number per microscopic field (1.7×10^-2 mm^2) or 150 μm length of venule. Rolling leukocytes were defined as those white blood cells that moved at a velocity less than that of erythrocytes in the same stream. The flux of rolling leukocytes was determined as the number of rolling leukocytes which crossed a fixed point on the venule over a given period of time. Leukocyte rolling velocity was determined from the time required for a leukocyte to roll along a given distance of the venule.

[4] = Table 2, mean of three identical experiments

For CC(=O)N[C@H]1[C@H](O[C@H]2[C@@H](O)[C@@H](CO)O[C@@H](O[C@H]3[C@H](O)[C@@H](O)C(O)O[C@@H]3CO)[C@@H]2O)O[C@H](CO)[C@@H](O)[C@@H]1O[C@@H]1O[C@H](CO)[C@H](O)[C@H](O)[C@H]1O[C@@H]1O[C@@H](C)[C@@H](O)[C@@H](O)[C@@H]1O (stereo partly drawn) [LNF I, reference compound], the “AMOUNT REQUIRED FOR 50% INHIBITION” value ([1]; Table 6) was “No Inhibition”.
CC(=O)N[C@H]1[C@H](O[C@H]2[C@@H](O)[C@@H](CO)O[C@@H](O[C@H]3[C@H](O)[C@@H](O)C(O)O[C@@H]3CO)[C@@H]2O)O[C@H](CO)[C@@H](O[C@@H]2O[C@H](CO)[C@H](O)[C@H](O)[C@H]2O)[C@@H]1O[C@@H]1O[C@@H](C)[C@@H](O)[C@@H](O)[C@@H]1O (stereo partly drawn) [LNF III (Le^x), reference compound] gave an IC50 ([1]; Table 6) of 41 µM.
With CC(=O)N[C@H]1C(O)O[C@H](CO)[C@@H](O[C@@H]2O[C@H](CO)[C@H](O)[C@H](O)[C@H]2O)[C@@H]1O[C@@H]1O[C@@H](C)[C@@H](O)[C@@H](O)[C@@H]1O (stereo partly drawn) [Le^x, reference compound] the IC50 [1, 4] was 43 µM.
With CC(=O)N[C@H]1[C@H]([C@H](O)[C@H](O)CO)O[C@@](O[C@H]2[C@@H](O)[C@@H](CO)O[C@@H](O[C@H]3[C@H](O)[C@@H](NC(C)=O)C(O)O[C@@H]3CO)[C@@H]2O)(C(=O)O)C[C@@H]1O (stereo partly drawn) [SLN-OH, sialyl-N-acetyllactosamine, reference compound] the “effect on CVF-induced permeability, hemorrhage, MPO / lung injury” value [2] was “unaltered”.
With CC(=O)N[C@H]1[C@H](O[C@@H]2[C@@H](O)[C@H](O)O[C@H](CO)[C@@H]2O)O[C@H](CO)[C@@H](O[C@@H]2O[C@H](CO)[C@H](O)[C@H](O[C@]3(C(=O)O)C[C@H](O)[C@@H](NC(C)=O)[C@H]([C@H](O)[C@H](O)CO)O3)[C@H]2O)[C@@H]1O[C@@H]1O[C@@H](C)[C@@H](O)[C@@H](O)[C@@H]1O [SLe^x (penta), NeuAcα2,3Galβ1,4-(Fucα1,3)GlcNacβ1,3Galβ] the IC50 [1, 4] was 2.2 µM.
Work on NCCc1c[nH]cn1 [histamine] yielded an Erythrocyte velocity ([3]; histamine 10^-5 M) of 1.8 ± 0.4 mm/sec, a Leukocyte adherence ([3]; histamine 10^-5 M) of 7.2 ± 1.1 per 100 μm and a Leukocyte emigration ([3]; histamine 10^-5 M) of 2.5 ± 0.9 per field. For the same molecule, the Venular diameter ([3]; histamine 10^-5 M) was 30 ± 1 μm, the Wall shear rate ([3]; histamine 10^-5 M) was 303 ± 64 s⁻¹ and the “number of rolling leukocytes, fold increase” value ([3]; histamine 10^-5 M) was 10 -fold. For the same molecule, the “recruitment of rolling leukocytes, fold increase” value ([3]; histamine 10^-5 M) was 5 -fold, the “reduction of leukocyte rolling velocity” value ([3]; histamine 10^-5 M) was 50% and the Erythrocyte velocity ([3]; histamine 10^-6 M) was 2.4 ± 0.2 mm/sec. For the same molecule, the Leukocyte adherence ([3]; histamine 10^-6 M) was 4.8 ± 0.7 per 100 μm, the Leukocyte emigration ([3]; histamine 10^-6 M) was 2.0 ± 0.7 per field and the Venular diameter ([3]; histamine 10^-6 M) was 30 ± 1 μm. The Wall shear rate ([3]; histamine 10^-6 M) was 401 ± 91 s⁻¹, the “effect on number of adherent leukocytes” value ([3]; histamine 10^-6 M and 10^-5 M) was “Significant increases in the number of adherent leukocytes” and the Erythrocyte velocity ([3]; histamine 10^-7 M) was 2.8 ± 0.2 mm/sec. For the same molecule, the Leukocyte adherence ([3]; histamine 10^-7 M) was 2.8 ± 0.7 per 100 μm, the Leukocyte emigration ([3]; histamine 10^-7 M) was 1.5 ± 0.7 per field and the Venular diameter ([3]; histamine 10^-7 M) was 30 ± 1 μm. It also gave a Wall shear rate ([3]; histamine 10^-7 M) of 476 ± 38 s⁻¹.
